The results in this text go back to article PMC5111108, “An insecticide resistance-breaking mosquitocide targeting inward rectifier potassium channels in vectors of Zika virus and malaria” (Scientific Reports, 2016).

One experiment relates to Ae. aegypti. Nature of the experiment: Topical toxicity bioassay, Ae. aegypti (LVP and PR strains) adult females. Format: in vivo, Aedes aegypti. Particulars: LVP strain. The protocol: Topical toxicity bioassays in adult female Ae. aegypti (LVP and PR strains) were performed as described previously. […] A solvent-only treatment was included in each experiment as a negative control. Treated mosquitoes were transferred to small cages with access to 10% sucrose and held under rearing conditions for 24 h. The efficacy of a dose was measured as the percentage of treated mosquitoes in a cage that were flightless or dead at 24 h. Four to eight replicates of 10 mosquitoes were performed per dose. The ED50 values were determined using a non-linear curve fit analysis (log [inhibitor] vs. response variable-slope) in Prism 6 (Graphpad Software).
Six replicate experiments of 10 mosquitoes were performed.

The target in another experiment is T1, AnKir1 (Anopheles gambiae, UniProt A0A075M2J8).
T1 sequence (A0A075M2J8 1-555): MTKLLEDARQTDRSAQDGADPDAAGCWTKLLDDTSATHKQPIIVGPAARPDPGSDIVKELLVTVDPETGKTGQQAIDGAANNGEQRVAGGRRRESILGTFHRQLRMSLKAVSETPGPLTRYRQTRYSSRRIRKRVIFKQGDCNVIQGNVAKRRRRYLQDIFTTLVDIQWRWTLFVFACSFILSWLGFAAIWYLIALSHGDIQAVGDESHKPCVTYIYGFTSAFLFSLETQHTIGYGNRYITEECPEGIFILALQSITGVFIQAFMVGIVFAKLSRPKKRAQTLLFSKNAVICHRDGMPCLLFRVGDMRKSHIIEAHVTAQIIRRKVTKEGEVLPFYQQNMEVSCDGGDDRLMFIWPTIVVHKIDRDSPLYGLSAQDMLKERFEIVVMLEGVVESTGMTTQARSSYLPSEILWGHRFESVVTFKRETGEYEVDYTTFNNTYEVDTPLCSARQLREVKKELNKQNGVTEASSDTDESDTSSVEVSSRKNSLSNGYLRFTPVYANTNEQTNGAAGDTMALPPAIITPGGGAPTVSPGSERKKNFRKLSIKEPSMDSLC
Nature of the experiment: Whole-cell patch clamp of AnKir1 in HEK-293T cells. Format: cell-based. The note with it: for IC50: currents at -120 mV. The text has this: Transiently transfected HEK-293T cells expressing AnKir1 cells were voltage clamped in the whole-cell configuration of the patch clamp technique, as described previously. The extracellular bath solution contained (in mM): 135 NaCl, 5 KCl, 2 CaCl2, 1 MgCl2, 5 glucose, 10 HEPES free acid, pH 7.4, 290 mOsm/kg H2O. The pipette solution contained (in mM): 135 KCl, 2 MgCl2, 1 EGTA, 10 HEPES free acid, 2 Na2ATP (Roche, Indianapolis, IN), pH 7.3, 275 mOsm. Cells were voltage clamped at −75 mV, stepped to −120 mV for 200 msec, and then ramped to 120 mV at a rate of 2.4 mV/msec. Concentration-response curves (CRCs) were constructed by measuring the effects of increasing doses of inhibitors on AnKir1 currents at −120 mV. All recordings were made at room temperature (20–23 °C).
Patch clamp electrophysiology
Patch electrodes were pulled from silanized 1.5 mm outer diameter borosilicate microhematocrit tubes using a P-1000 Flaming/Brown micropipette puller (Sutter Instrument, Novato CA, USA). Electrode resistance ranged from 2 -4 MΩ. Whole-cell currents were recorded under voltage-clamp conditions using an Axopatch 200B amplifier (Molecular D evices, Sunn yvale, CA). Electri cal conn ections to the amplifier were made using Ag/AgCl wires and 3 M KCl/agar bridges. El ectroph ysiologi cal data were collected at 5 kHz and filtered at 1 kHz.
Data acquisition and anal ys is were performed using pClamp 9.2 software (Axon Instruments). […]

A further experiment deals with An. gambiae Akron strain. Nature of the experiment: Topical toxicity bioassay, An. gambiae Akron strain adult females. Format: in vivo. The note with it: 24 h, adult female An. gambiae, (95% confidence limits), synergist PBO applied 4 h prior where labelled. The protocol: Topical toxicity bioassays were performed based on the method of Pridgeon et al.[50]. Briefly, non-blood fed adult female mosquitoes were chilled on ice for 1–3 minutes, during which 200 nL of chemical (dissolved in 95% ethanol) was applied onto the abdomen of the insect using a handheld Hamilton® micro-applicator. For synergism studies, 500 ng of the synergist (i.e., piperonyl butoxide [PBO] or S,S,S-tributyl phosphorotrithioate [DEF]) per milligram of mosquito (ng/mg) was applied to the abdomen 4 h prior to application of the insecticide. […] The three ED50 values obtained were then averaged and presented as a mean. An ethanol-only treatment was included in each experiment as a negative control. Treated mosquitoes were transferred to small cages with access to 10% sucrose and held under rearing conditions for 24 h. Mortality was recorded at 24 h.

The subject of another experiment is An. gambiae. Nature of the experiment: Blood meal processing (abdominal diameter) in An. gambiae. The class given is in vivo, Anopheles gambiae. The note with it: topical 1 μg/mg (ED30 dose of VU041) immediately after engorgement, over 24 h. The protocol: Blood meal processing studies were performed with similar methods as described above, with the exception that An. gambiae were blood fed on anesthetized mice. All methods were carried out in accordance with Vanderbilt Institutional Animal Care and Use Committee approval (protocol M/13/164 to Dr. Julian Hillyer, Department of Biology, Vanderbilt University). Upon completion of blood feeding, female mosquitoes with a fully distended abdomen were selected and 200 nL of chemical at a non-lethal concentration (1 μg/mg) was applied directly to the abdomen. Any mosquito that died during the 24 h observation period was excluded from the analysis. Images of the abdomens were acquired at 0, 2, 5, 8, and 24 h through the dorsal cuticle and were measured at the widest point of the abdomen. These images were captured using bright-field illumination on a Nikon 90i light microscope (Nikon Corp., Tokyo, Japan) connected to a Photometrics CoolSNAP HQ2 high-sensitivity monochrome CCD camera (Roper Scientific, Ottobrunn, Germany). Digital images were acquired using Nikon Advanced Research NIS-Elements software. Mean abdominal diameters were compared using a one-way ANOVA with a Tukey’s post-hoc analysis (Prism 6, Graphpad Software, La Jolla, CA).

Usually IC50 stands for the concentration needed to halve the response being measured. Lower therefore signals greater potency.

Some results are limits rather than exact numbers.

In the experiment with Ae. aegypti (topical, 24 h, flightless or dead), `O=C(Cn1nc(C(F)(F)F)c2c1CCCC2)N1CCCc2ccccc21` [VU041, 1-(3,4-dihydroquinolin-1(2H)-yl)-2-(3-(trifluoromethyl)-4,5,6,7-tetrahydro-1H-indazol-1-yl)ethan-1-one] yielded an ED50 of 3.24 μg/mg mosquito. On AnKir1, the “Hill coefficient (patch clamp, AnKir1)” value was determined as 1.3 and half-maximal inhibition (IC50) was put at 0.496 µM. For the same molecule, at AnKir1 (10 μM, wash-out with control saline), the “time-course and reversibility of AnKir1 inhibition” value was “rapid and partially reversible”. For the same molecule, the “ED50, Akron Strain” value with An. gambiae Akron strain was 2.8 (2.1–4.1) A μg/mg. In the experiment with An. gambiae, the “change of abdominal diameter after blood meal” value is on record as “did not change over the following 24 h period”.

Take `O=C(Cn1ncc2c1CCOC2)N1CCCc2ccccc21` [VU730]: at AnKir1, the half-inhibitory concentration (IC50) was determined as 0.717 µM.

Regarding `O=C(Cn1nc(C(F)(F)F)c2c1CCCC2)NC1CCC1` [VU937], in the experiment with Ae. aegypti (dose near ED50 of VU041, 24 h), the topical toxicity entry is given as “not toxic”. The same molecule had a 50% inhibitory concentration (IC50) on AnKir1 of 29.7 µM. The “AnKir1 inhibition relative to VU041 (fold less)” value on AnKir1 (patch clamp) is 60 fold. For the same molecule, in the experiment with An. gambiae Akron strain, the “ED50, Akron Strain” value is greater than 10 µg/mg. Further, the “change of abdominal diameter after blood meal” value in the experiment on An. gambiae was “decreased significantly over 24 h”.
